Among the data in article PMC7822874, “Chemoprotective antimalarials identified through quantitative high-throughput screening of Plasmodium blood and liver stage parasites” (Scientific Reports, 2021) are AC50 values, retold here.

Each structure is given as a SMILES string.

The subject of this experiment is Plasmodium falciparum Dd2 asexual blood stage parasites. The experiment can be described thus: microbe, parasite or virus in culture. More on the design: species or system Plasmodium falciparum Dd2 in human erythrocytes; single determination (one 11-point concentration-response curve). Particulars: Plasmodium falciparum, DD2, Erythrocyte, 72 h; read-out: AC50.
Usually AC50 stands for the concentration giving half of the maximal activity seen. In the case of `O=c1cc(-c2cccnc2)oc2c(-c3ccccc3Oc3ccccc3)nccc12` [NCGC00416761-01], the AC50 was determined as 17.2 µM.

On to `CC(NC(=O)Cn1c(-c2cccs2)cc2cc(F)ccc21)c1ccccc1` (centres unmarked) [NCGC00123911-01], for which the half-maximal activity concentration (AC50) worked out at 2.66 µM.

In the case of `CC(C)(C)c1ccc(C(=O)Nc2ccc(C(O)[C@H]3COCC(=O)N3Cc3ccccn3)cc2)cc1` (some centres unmarked) [NCGC00392498-01], the AC50 amounted to 5.31 µM.

In the case of `Cc1cc(NCc2ccco2)nc2cc(O)ccc12` [MLS000118315-01], the half-maximal activity concentration (AC50) was 6.68 µM.

As to `CCOc1ccc(-n2c(SCC(N)=O)nc3sc4c(c3c2=O)CCN(C)C4)cc1` [MLS000332254-01], the AC50 was found to be 15 µM.

Consider `Cc1ccc(C2=CC(c3ccc(Cl)cc3)n3nc(-c4ccc(C)cc4)nc3N2)cc1` (centres unmarked) [NCGC00105128-01], for which the concentration at half-maximal activity (AC50) was determined as 1.68 µM.

As for `CC1(c2ccccc2)O[C@@H]2C[C@H]3[C@@H]4CCC5=CC(=O)C=C[C@]5(C)[C@@]4(F)[C@@H](O)C[C@]3(C)[C@]2(C(=O)CO)O1` (some centres unmarked) [MLS000738166-01], the AC50 was determined as 4.73 µM.

For `Cc1cc(Nc2ccc(C(C)C)cc2)n2ncnc2n1` [MLS000116597-01], the AC50 amounted to 4.22 µM.

Take `COc1ccccc1Nc1cnc2ccc(-c3ccc(F)cc3)nn12` [NCGC00412490-01]: the AC50 was 6.85 µM.

On to `CCCNC(=O)N1CC(Oc2cccc(-c3nc(-c4ccccc4)no3)c2)C1` [NCGC00441277-01], for which the AC50 came to 13.3 µM.

On to `COc1ccccc1-c1cc(C(=O)N2CCN(S(=O)(=O)c3ccc(C)cc3)CC2)[nH]n1` [MLS000924750-01], for which the AC50 was 7.5 µM.

With `Cc1oc2ccc(O)c(CN(C)Cc3ccccc3)c2c1C(=O)Nc1ccccc1` [NCGC00115689-01], the AC50 was determined as 2.37 µM.

With `O=C1NC2(CCN(C(=O)c3ccc(C(F)(F)F)cc3)CC2)COc2ccccc21` [NCGC00477468-01], the AC50 was found to be 8.41 µM.

Consider `CC(C)c1ccc(-c2noc(SCC(=O)N3CCN(c4ccc(F)cc4)CC3)n2)cc1` [NCGC00127934-01], for which the AC50 turned out to be 0.668 µM.

Take `Cc1ccc(NC(=O)CC2SC(NC3CCCCC3)=NC2=O)cc1` (centres unmarked) [MLS000700518-01]: the half-maximal activity concentration (AC50) turned out to be 11.9 µM.

For `COc1cc(NC(=O)Cn2ncc3c(=O)oc4ccccc4c32)cc(OC)c1OC` [NCGC00108571-01], the AC50 was determined as 2.66 µM.

In the case of `NC(Cc1ccccc1)C(=O)N1CCC2(CC1)CN(C(=O)c1ccc(Cl)cc1)CCO2` (centres unmarked) [NCGC00378158-01], the half-maximal activity concentration (AC50) was found to be 0.841 µM.

With `CCO[C@H]1OC(C(=O)N2CCN(Cc3ccc4c(c3)OCO4)CC2)=C[C@@H](c2cn(C(C)=O)c3ccccc23)[C@@H]1CCCO` [MLS000834466-01], the AC50 amounted to 8.41 µM.

With `O=C(Nc1cccnc1)c1cn(-c2ccccc2)nc1-c1cccs1` [MLS000081870-01], the AC50 is 2.37 µM.

For the molecule `CCOc1ccccc1C(=O)N1CCN(C(=O)c2nnn3c2COC(c2ccccc2)C3)CC1` (centres unmarked) [NCGC00449179-01], the AC50 was determined as 16.8 µM.

In the case of `O=C(NCCC1=CCCCC1)c1ccc2c(=O)n3nc(Nc4ccccc4)sc3nc2c1` [NCGC00138829-01], the AC50 was determined as 4.73 µM.

Turning to `Cc1ccc(Oc2c(C(F)(F)F)oc3c(CN4CCC(C)CC4)c(O)ccc3c2=O)cc1` [NCGC00101480-01], the AC50 stood at 1.68 µM.

As to `CC(=O)Nc1nc2ccccc2n1Cc1ccc(Cl)cc1` [MLS000779302-01], the AC50 worked out at 8.41 µM.

Regarding `CC1(c2ccccc2)N(Cc2cccnc2)C(=O)OC12CCN(Cc1ccccc1)CC2` (centres unmarked) [NCGC00415633-01], the AC50 came to 17.2 µM.

In the case of `CCc1cccc(-n2c(=O)c3cccnc3n2CC(=O)Nc2ccc(F)c(C)c2)c1` [NCGC00128424-01], the concentration at half-maximal activity (AC50) was determined as 2.66 µM.

As for `COc1ccc(OCCn2cc(C(=O)c3ccco3)c3ccccc32)cc1` [NCGC00101886-01], the AC50 was 2.11 µM.

On to `COCCN1Cc2ccc(NCC(C)C)nc2C(C)(C(=O)Nc2ccncc2)C1` (centres unmarked) [NCGC00414482-01], for which the half-maximal activity concentration (AC50) came to 21.7 µM.

On to `CCOc1cc(CNCC(O)c2ccccc2)cc(Cl)c1OC` (centres unmarked) [MLS000676147-01], for which the AC50 amounted to 3.35 µM.

For `CCCN1CCC(NCc2cn(C)nc2-c2ccc(Oc3ccccc3)cc2)CC1` [MLS000732385-01], the concentration at half-maximal activity (AC50) was determined as 4.73 µM.

As for `Cc1ccc(C)c(N2CCN(C(=O)c3cc([S+](=O)([O-])N4CCCCCC4)cn3C)CC2)c1` [NCGC00132413-01], the AC50 worked out at 10.6 µM.

Regarding `CCOc1nc(N=C(N)N)nc2c(C)cccc12` [MLS000570610-01], the AC50 stood at 10.6 µM.

As for `Cc1ccccc1CN1C(=O)CN=C(c2ccccc2)c2cc(Cl)ccc21` [NCGC00140581-01], the AC50 amounted to 16.8 µM.

For the molecule `O=C1CC2(CCN(Cc3ccccc3)CC2)Oc2ccccc21` [NCGC00476829-01], the half-maximal activity concentration (AC50) is 13.7 µM.

For `COc1ccc(OC)c([S+](=O)([O-])NC[C@H]2C[C@@H]3CCN2C[C@@H]3c2cc(-c3ccc(F)cc3)nn2C)c1` [NCGC00420960-01], the concentration at half-maximal activity (AC50) stood at 6.68 µM.

`COc1cccc(CN2CCC3(CC2)OC(=O)N(Cc2ccccc2)C3(C)c2ccccc2)c1` (centres unmarked) [NCGC00415605-01]: the AC50 was found to be 15 µM.

Regarding `C=C[C@]1(C)C[C@@H](OC(=O)CSC(C)(C)CNC(=O)[C@H](N)C(C)C)[C@]2(C)[C@H](C)CC[C@]3(CCC(=O)[C@H]32)[C@@H](C)[C@@H]1O` [NCGC00167968-01], the AC50 worked out at 8.41 µM.

Consider `COc1ccc(C)cc1NCc1cc(=O)oc2cc(-c3ccccc3)c(O)cc12` [MLS000331048-01], for which the AC50 amounted to 5.31 µM.

With `Fc1ccc(-c2ccc3ncc(Nc4ccnc(N5CCOCC5)c4)n3n2)cc1` [NCGC00412558-01], the AC50 came to 1.72 µM.

In the case of `COCC1CN(Cc2cc(F)cc(Br)c2)CC12CCNCC2` (centres unmarked) [NCGC00461842-01], the AC50 stood at 9.44 µM.

For the molecule `COCCNC(=O)CSc1nc(-c2cc(OC)c(OC)c(OC)c2)[nH]c1-c1ccc(Cl)cc1` [NCGC00107926-01], the AC50 was determined as 8.41 µM.

For `Cc1ccccc1OCCSc1nc2ccc(NC(=O)c3cccs3)cc2s1` [NCGC00118502-01], the AC50 stood at 5.31 µM.

With `Cc1ccc(NC(=O)N(Cc2ccc3c(c2)OCO3)Cc2cc3cc4c(cc3[nH]c2=O)OCCO4)cc1` [MLS000033889-01], the AC50 turned out to be 6.68 µM.

Consider `CC1CCN(c2nc3c([S+](=O)([O-])c4ccccc4)nnn3c3ccc(Cl)cc23)CC1` [NCGC00112222-01], for which the AC50 is 2.66 µM.

With `COc1ccccc1-c1nnc2n1C(C(=O)NCCc1ccc(Cl)cc1)CC2` (centres unmarked) [NCGC00375512-01], the AC50 was determined as 3.35 µM.

On to `COCc1ccc2c(c1)c(OC(C)(C)C(=O)N1CCN(CCO)CC1)nn2Cc1ccccc1` [NCGC00419658-01], for which the AC50 is 9.44 µM.

Regarding `COc1ccc2cc1Nc1ccc(cc1)C[C@H](NC(=O)Cc1cccc(Cl)c1)C(=O)N(C)[C@H](C(=O)NCCOc1ccccc1)C2` [NCGC00410283-01], the AC50 was 7.5 µM.

Consider `COc1ccc(/C=C\c2onc(C)c2[S+](=O)([O-])N2CCC(C(=O)Nc3ccc(C)cc3C)CC2)cc1` [NCGC00109197-01], for which the concentration at half-maximal activity (AC50) was found to be 0.841 µM.

Take `CC(O)CNCCNCc1c(OCc2ccccc2)ccc2ccccc12` (centres unmarked) [MLS000324858-01]: the AC50 stood at 8.41 µM.

Regarding `Cn1c2ccc(F)cc2c2nnc(SCCN3CCCCC3)nc21` [NCGC00102309-01], the AC50 is 15 µM.

For `Cc1ccc(OCc2nc(C3CCN(C(=O)c4c5c(nc6ccccc46)CCCC5)CC3)no2)cc1` [NCGC00459905-01], the AC50 came out at 9.44 µM.

Turning to `Cc1ccnc2nc(C(=O)Nc3cc(Cl)ccc3N3CCOCC3)nn12` [MLS000567033-01], the AC50 stood at 4.73 µM.

`O[C@@H]1C[C@@](CNCC2CCCC2)(COc2ccc(C(F)(F)F)cn2)C[C@@H]1O` [NCGC00393440-01]: the AC50 amounted to 5.31 µM.

In the case of `Cc1nn(-c2ccc(C(C)(C)C)cc2)c(C)c1[C@@H]1C=C[C@@H](NC(=O)c2ccco2)C1` [NCGC00394638-01], the AC50 was determined as 12.2 µM.

Turning to `CC(=O)N1CCc2cc(Br)cc(S(=O)(=O)N3CCCCC3)c21` [MLS000936219-01], the AC50 turned out to be 5.96 µM.

In the case of `COc1cccc(CN2C(=O)OC3(CCN(Cc4ccccc4OC)CC3)C2(C)c2cccnc2)c1` (centres unmarked) [NCGC00415564-01], the AC50 came to 4.73 µM.

Regarding `COc1ccc(OC)c(CN2CC(Oc3ccccc3C(=O)NCc3ccccc3)C2)c1` [NCGC00458087-01], the AC50 was 13.3 µM.

`COc1ncccc1-c1nc(-c2c(C)noc2C)cc2c1cc(-c1ccccc1)n2C` [NCGC00417163-01]: the AC50 was determined as 13.7 µM.

Regarding `CCOc1ccc(-c2cc3nc(C4CCN(C(=O)OC(C)(C)C)CC4)c(C(=O)Nc4ccc(C(=O)OC)cc4)cn3n2)cc1` [NCGC00110849-01], the AC50 was determined as 4.73 µM.

For `CCN(CC)CCNC(=O)c1ccc(NC(=O)c2cccc(S(=O)(=O)N3CCc4ccccc43)c2)cc1` [MLS002169644-01], the AC50 stood at 5.31 µM.

For the molecule `Oc1cc(NCc2ccc(F)cc2)cc2cccnc12` [NCGC00183798-01], the AC50 is 4.73 µM.

Turning to `COc1ccc(C2=C(C(C)=O)Sc3nnc(-c4ccc(Cl)cc4)n3N2C(C)=O)cc1OC` [NCGC00137262-01], the AC50 was 3.76 µM.

Regarding `CCN(CC)C(=O)c1sc(NC(=O)C(C)Sc2nc(-c3ccccc3)cc(C(F)(F)F)n2)c(C(=O)OC)c1C` (centres unmarked) [NCGC00101276-01], the AC50 was determined as 0.596 µM.

Consider `O=C(NC1CC1)c1ccccc1OCC1CCCN(Cc2cccc3[nH]ccc23)C1` (centres unmarked) [NCGC00427156-01], for which the AC50 was found to be 5.96 µM.

`COc1cccc(NC(=O)C2(C)CN(C)Cc3ccc(N4CCOCC4)nc32)c1` (centres unmarked) [NCGC00414578-01]: the AC50 is 3.85 µM.

`CCOc1ccc(CCNC(=O)c2ccc3c(c2)N(Cc2ccccc2F)C(=O)c2ccccc2[S+]3[O-])cc1OCC` (centres unmarked) [NCGC00109590-01]: the AC50 is 10.6 µM.

As for `CCc1ccc(CN2CCN(Cc3cc(Br)ccc3O)CC2)cc1` [MLS000673664-01], the AC50 was determined as 2.11 µM.

For the molecule `COc1ccccc1C(=O)N1CCC2(CC1)OC(=O)N(CCOc1ccccc1)C2(C)c1cccnc1` (centres unmarked) [NCGC00415508-01], the AC50 stood at 9.44 µM.

With `Cc1noc(C)c1-c1cc2cc(CN(C)C)oc2c(NCc2cccnc2)n1` [NCGC00417547-01], the AC50 stood at 1.22 µM.

Regarding `COc1ccc(C(=O)N2CCC3(CC2)COc2ccccc2CN3)cc1` [NCGC00477552-01], the AC50 was determined as 10.6 µM.

As for `COC1CN(c2ccc(C)cc2)C12CCN(C(=O)CCc1nc3ccccc3s1)CC2` (centres unmarked) [NCGC00465628-01], the concentration at half-maximal activity (AC50) came out at 10.6 µM.

For `CN1CCCC(CN(CCc2ccccc2)C(=O)c2cc(C#N)cn2C)C1` (centres unmarked) [NCGC00443707-01], the AC50 was 9.44 µM.
